Assay results as given in patent US20240174618A1, “SUBSTITUTED (2-HETEROARYLOXYPHENYL)SULFONATES, SALTS THEREOF AND THEIR USE AS HERBICIDAL AGENTS” (Bayer Aktiengesellschaft, priority 2021, published 2024).

Assays:
Assay type in all cases: in vivo
[1] = test system: Alopecurus myosuroides (ALOMY); test: E. Herbicidal post-emergence efficacy, ALOMY
Experimental: Seeds of monocotyledonous and dicotyledonous weeds and crop plants were placed in sandy loam in plastic or organic planting pots, covered with soil and cultivated in a greenhouse under controlled growth conditions. 2 to 3 weeks after sowing, the test plants were treated at the one-leaf stage. The compounds of the invention, formulated in the form of wettable powders (WP) or as emulsion concentrates (EC), were then sprayed onto the green parts of the plants as aqueous suspension or emulsion with addition of 0.5% additive at a water application rate of 600 l/ha (converted). After the test plants had been kept in the greenhouse under optimum growth conditions for about 3 weeks, the activity of the preparations was rated visually in comparison to untreated controls.
For example, • 100% efficacy=plants have died, • 0% action=like untreated control plants.
Tables E1a to E12b below show the effects of selected compounds of the general formula (I) according to table 1 on various harmful plants at an application rate corresponding to 320 g/ha or less, which were obtained by the experimental procedure mentioned above.

[2] = test system: Alopecurus myosuroides (ALOMY); test: A. Herbicidal pre-emergence efficacy, ALOMY; settings: scored visually after about 3 weeks vs untreated controls
Method in brief: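 Applied before emergence onto covering soil at rates of 1280 g/ha or less, using 600 L/ha spray water with 0.5% additive. Scoring: visual % efficacy after ~3 weeks, greenhouse.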

Zea mays (ZEAMX) [3] = test: F. Post-emergence effect on useful plants, ZEAMX; settings: useful plant
Method in brief: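 Visual efficacy rating versus untreated plants, from 0% (no effect) to 100% (plants died), made about 3 weeks after post-emergence treatment. Formulated compounds (WP or EC, 0.5% additive, 600 l/ha water) were sprayed onto greenhouse-grown crops at the one-leaf stage, 2-3 weeks after sowing.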

[4] = test system: Alopecurus myosuroides (ALOMY); test: B. Herbicidal post-emergence efficacy, ALOMY; settings: rated visually after about 3 weeks
Experimental: (§1) Seeds of mono- and dicotyledonous weed plants were placed in plastic pots in sandy loam soil (doubly sown with in each case one species of mono- or dicotyledonous weed plants per pot), covered with soil and cultivated in a greenhouse under controlled growth conditions. 2 to 3 weeks after sowing, the test plants were treated at the one-leaf stage. The compounds of the invention, formulated in the form of wettable powders (WP) or as emulsion concentrates (EC), were applied onto the green parts of the plants as aqueous suspension or emulsion with addition of 0.5% additive at a water application rate of 600 liters per hectare (converted). After the test plants had been kept in the greenhouse under optimum growth conditions for about 3 weeks, the activity of the preparations was rated visually in comparison to untreated controls.
(§2) For example, • 100% efficacy=plants have died, • 0% efficacy=like untreated control plants
(§3) Tables B1a to B12c below show the effects of selected inventive compounds of the general formula (I) according to table 1 on various harmful plants at an application rate corresponding to 1280 g/ha or less, which were obtained by the experimental procedure mentioned above.

Lolium rigidum (LOLRI) = test: B. Herbicidal post-emergence efficacy, LOLRI
Experimental: as §1, §2, §3

[5] = test system: Pharbitis purpurea (PHBPU); test: C. Herbicidal pre-emergence efficacy, PHBPU; settings: scored after about 3 weeks
Source text: (§4) Seeds of monocotyledonous and dicotyledonous weed plants and crop plants were placed in plastic or organic planting pots and covered with soil. The compounds of the invention, formulated in the form of wettable powders (WP) or as emulsion concentrates (EC), were then applied to the surface of the covering soil as aqueous suspension or emulsion with addition of 0.5% additive at a water application rate equivalent to 600 l/ha (converted). After the treatment, the pots were placed in a greenhouse and kept under good growth conditions for the test plants. After about 3 weeks, the efficacy of the preparations was scored visually in comparison with untreated controls as percentages. For example, • 100% efficacy=plants have died, • 0% efficacy=like untreated control plants.
(§5) Tables C1a to C14b below show the effects of selected compounds of the general formula (I) according to table 1 on various harmful plants at an application rate corresponding to 320 g/ha or less, which were obtained by the experimental procedure mentioned above.

Avena fatua (AVEFA) = test: C. Herbicidal pre-emergence efficacy, AVEFA; settings: 320 g/ha, scored after about 3 weeks
Source text: as §4, §5

[6] = test system: Echinochloa crus-galli (ECHCG); test: B. Herbicidal post-emergence efficacy, ECHCG; settings: rated visually after about 3 weeks
Method in brief: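 Post-emergence greenhouse test: one-leaf-stage plants, compound (WP/EC, +0.5% additive, 600 L/ha water, ≤1280 g/ha) applied to green parts; % efficacy scored visually vs untreated after ~3 wk; 100% = plants died.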

[7] = test system: Matricaria inodora (MATIN); test: C. Herbicidal pre-emergence efficacy, MATIN; settings: scored after about 3 weeks
Method in brief: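 Pre-emergence test: formulated compounds sprayed as aqueous suspension or emulsion with 0.5% additive at 600 l/ha onto soil covering sown seeds, at rates corresponding to 320 g/ha or less. After about 3 weeks in greenhouse, efficacy scored visually as percent versus untreated controls (100% = plants dead).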

Zea mays (ZEAMX) [8] = test: D. Pre-emergence effect on useful plants, ZEAMX; settings: useful plant, application rate 80 g/ha
Method in brief: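 Seeds sown in pots and covered with soil; WP or EC formulations sprayed on the soil surface as aqueous suspension/emulsion with 0.5% additive at 600 l/ha water. Plants grown in greenhouse; crop damage scored visually after about 3 weeks as % versus untreated controls (100% = dead, 0% = like control).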

Row | SMILES | Post-emergence efficacy against ALOMY in % ([1]; application rate 320 g/ha) [%] | Pre-emergence efficacy against ALOMY ([2]; 1280 g/ha) [%] | Post-emergence efficacy against ZEAMX in % (Zea mays (ZEAMX) [3]; application rate 80 g/ha) [%] | Post-emergence efficacy against ZEAMX in % (Zea mays (ZEAMX) [3]; application rate 320 g/ha) [%] | Post-emergence efficacy against ALOMY in % ([4]; 1280 g/ha) [%] | Post-emergence efficacy against LOLRI (Lolium rigidum (LOLRI); 1280 g/ha) [%] | Pre-emergence efficacy against PHBPU ([5]; 80 g/ha) [%] | Pre-emergence efficacy against PHBPU ([5]; 320 g/ha) [%] | Pre-emergence efficacy against AVEFA (Avena fatua (AVEFA)) [%] | Post-emergence efficacy against ECHCG in % ([6]; 320 g/ha) [%] | Post-emergence efficacy against ECHCG in % ([6]; 1280 g/ha) [%] | Pre-emergence efficacy against ALOMY ([2]; 320 g/ha) [%] | Post-emergence efficacy against ALOMY in % ([4]; 320 g/ha) [%] | Post-emergence efficacy against ECHCG in % ([6]; 80 g/ha) [%] | Pre-emergence efficacy against MATIN ([7]; 80 g/ha) [%] | Pre-emergence efficacy against MATIN ([7]; 320 g/ha) [%] | Pre-emergence efficacy against ZEAMX in % (Zea mays (ZEAMX) [8]) [%] | Post-emergence efficacy against ALOMY in % ([1]; application rate 80 g/ha) [%] | Post-emergence efficacy against LOLRI (Lolium rigidum (LOLRI); 320 g/ha) [%]
1 | O=S(=O)(CCCC(F)(F)F)Oc1c(F)cccc1Oc1ncc(Br)cn1 [Example I-41] | 100 | 100 | 0 | 20 | 90 | 90 | 80 | 100 |  |  |  |  |  |  |  |  |  |  | 
2 | CCCCS(=O)(=O)Oc1ccccc1Oc1ncc(Cl)cn1 [Example I-6] | 90 | 90 |  |  |  |  |  | 80 | 80 | 90 | 90 |  |  |  |  |  |  |  | 
3 | O=S(=O)(CCC(F)(F)F)Oc1c(F)cccc1Oc1ncc(F)cn1 [Example I-47] | 100 | 100 |  |  | 100 |  | 90 | 100 | 100 | 100 | 100 | 100 | 90 | 90 | 90 | 100 |  |  | 
4 | O=S(=O)(CC1CC1)Oc1ccccc1Oc1ncc(Cl)cn1 [Example I-23] | 80 | 90 | 20 |  | 90 |  |  | 80 | 90 | 90 | 90 |  | 90 |  |  | 100 | 0 |  | 
5 | O=S(=O)(CCCC(F)(F)F)Oc1c(F)cccc1Oc1ncc(Cl)cn1 [Example I-49] | 80 | 90 |  |  | 90 | 90 | 90 | 100 |  | 90 | 90 |  |  | 90 | 80 | 100 |  |  | 
6 | O=S(=O)(CCC(F)(F)F)Oc1c(Cl)cccc1Oc1ncc(Cl)cn1 [Example I-38] | 80 | 100 |  |  |  | 90 |  |  |  |  |  |  |  |  | 80 | 80 |  |  | 
7 | O=S(=O)(CCC(F)(F)F)Oc1ccccc1Oc1ncc(Cl)cn1 [Example I-8] | 90 | 90 |  |  |  | 90 |  | 80 | 90 | 90 | 100 |  |  |  | 80 | 80 |  |  | 
8 | O=S(=O)(CCCC(F)(F)F)Oc1ccccc1Oc1ncc(Cl)cn1 [Example I-10] | 100 | 90 |  |  |  | 100 | 100 | 100 | 90 | 100 | 100 | 90 |  | 100 | 90 | 100 |  | 90 | 90
